Measured values published in ChEMBL document CHEMBL4699637, “Glycosylated Phenols and an Unprecedented Diacid from the Saudi Plant Cissus rotundifolia” (J Nat Prod, 2020).
Calls of active or inactive are those of the source. No cut-off for these calls is given here.

What was measured:
Huh-7 = assay: Activation of glucose transporter in human Huh-7 cells assessed as increase in glucose uptake at 800 ug/ml preincubated for 30 mins followed by […] addition and measured after 45 mins by fluorescence assay; assay type: cell-based; details: dose 800.0 µg/ml, time 75.0 min
[1] = Activation of glucose transporter in human Huh-7 cells assessed as increase in glucose uptake preincubated for 30 mins followed by 2-NDBG addition and measured after 45 mins by fluorescence assay

| Structure (SMILES) | Activity (Huh-7) | EC50 [1] | fold change (FC) (Huh-7; filed as activator) |
| --- | --- | --- | --- |
| O=c1cc(-c2ccc(O)c(O)c2)oc2c([C@@H]3O[C@H](CO)[C@@H](O)[C@H](O)[C@H]3O[C@@H]3O[C@H](CO)[C@@H](O)[C@@H]3O)c(O)cc(O)c12 | inactive | – | – |
| O=C1OC[C@H]2O[C@@](CO)(O[C@H]3O[C@H](COC(=O)[C@H]4[C@H]1[C@@H](c1ccc(O)cc1)[C@@H]4c1ccc(O)cc1)[C@@H](O)[C@H](O)[C@H]3O)[C@@H](O)[C@@H]2O | inactive | – | – |
| O=C(/C=C/c1ccc(O)cc1)O[C@@H]1O[C@H](CO)[C@@H](O)[C@H](O)[C@H]1O | – | 7.7 µM | 2 |
| O=c1cc(-c2ccc(O)cc2)oc2c([C@@H]3O[C@H](CO)[C@@H](O)[C@H](O)[C@H]3O[C@@H]3O[C@H](CO)[C@@H](O)[C@@H]3O)c(O)cc(O)c12 | inactive | – | – |
| CC(/C=C/C(=O)O)=C\C=C\C[C@H](O[C@@H]1O[C@H](CO)[C@@H](O)[C@H](O)[C@H]1O)[C@H](C)CC(=O)O | inactive | – | – |
| O=c1cc(-c2ccc(O)cc2)oc2cc(O)c([C@@H]3O[C@H](CO)[C@@H](O)[C@H](O)[C@H]3O[C@@H]3O[C@H](CO)[C@@H](O)[C@H](O)[C@H]3O)c(O)c12 | inactive | – | – |
| O=C(O)/C=C\c1ccc(O[C@@H]2O[C@H](CO)[C@@H](O)[C@H](O)[C@H]2O)cc1 | inactive | – | – |
